These results are taken from patent US8361758B2, “Microorganism of Corynebacterium genus having resistance to kanamycin and enhanced L-lysine productivity and method of producing L-lysine using the same” (priority 2005, dated 2013).

For assay [1], the system named is Corynebacterium glutamicum KFCC10881-CJP5103. The assay can be described thus: Resistance to kanamycin: growth on minimal agar plate medium containing kanamycin. The class given is cell-based. The conditions noted are these: Kanamycin 5 mg/l, cultured four days, kanamycin-resistant mutant. As for the experimental part: (§1) Next, an experiment of resistance to kanamycin with respect to the selected mutant resistant to kanamycin, Corynebacterium glutamicum KFCC10881-CJP5103, and the parent bacteria was performed. First, the two microorganisms were cultured in a Luria Bertani (LB) liquid medium for 16 hours, and then the cells were washed using sterile normal saline two times. Then, the washed cells were properly diluted and the resulting product was cultured in a minimal agar plate medium containing kanamycin having a concentration of 5 mg/l for four days to measure productivity of each microorganism. A composition of the minimal agar plate medium is the same as follows: 10 g of glucose, 2 g of (NH4)2SO4, 2 g of urea, 1.0 g of KH2PO4, 3.0 g of K2HPO4, 0.5 g of MgSO4.7H2O, 10 mg of FeSO4.7H2O, 10 mg of MnSO4.7H2O, 100 μg of biotin, 100 lag of thiamine. HCl, 100 μg of CaCl2.2H2O, 80 μg of Na2B4O7.10H2O, 40 μg of (NH4)6MoO27.4H2O, 10 μg of ZnSO4.7 H2O, 300 μg of CuSO4.7 H2O, 10 μg of MnCl2.4H2O, 1 mg of FeCl3.6H2O, 20 g of agar, 0.1 g of L-leucine if necessary, 0.1 g of L-threonine if necessary, 0.1 g of L-methionine if necessary, per 1 L of distilled water (pH 7.0).
(§2) The results of measuring productivity of the mutant and the parent bacteria in a kanamycin-containing medium are shown in Table. 1.

Assay [2] concerns Corynebacterium glutamicum KFCC10881. The assay is described as above. Type of assay: cell-based. The conditions noted are these: Kanamycin 5 mg/l, cultured four days, parent strain. As for the experimental part:
as §1, §2

Take `NC[C@H]1O[C@H](O[C@H]2[C@H](O)[C@@H](O[C@H]3O[C@H](CO)[C@@H](O)[C@H](N)[C@H]3O)[C@H](N)C[C@@H]2N)[C@H](O)[C@@H](O)[C@@H]1O` [Kanamycin, kanamycin]: the “Growth of KFCC-10881-CJP5103 in kanamycin-containing medium” value in assay [1] is recorded as “+++”. Further, the “Growth of KFCC-10881 in kanamycin-containing medium” value in assay [2] is given as “−”.
